One series has as its target T1, HBV polymerase (Hepatitis B virus genotype A2 subtype adw2, UniProt P03159).
T1 construct: made in house; host or cells: E. coli
Kind of series: In vitro reverse transcription activity of HBV polymerase (ELISA-type, DIG/biotin nucleotides). In kind it is biochemical. The following applies: read-out: Inhibition activity on HBV-RT (%); for inhibition at 0.01 µg/mL: 0.01 μg/ml test compound; for inhibition at 0.1 µg/mL: 0.1 μg/ml test compound; for inhibition at 1 µg/mL: 1 μg/ml test compound. As to the method:
The following in vitro experiment was performed to determine the effect of the compounds of formula 1 on the activity of HBV polymerase during reverse transcription.
The present inventors submitted application for a patent concerning HBV polymerase genetically expressed in and separated from E. coli, the process of its preparation, and the method to measure the enzyme activities (KR 94-3918, KR 96-33998). In the present experiments HBV polymerase was used which had been expressed in E. coli as stated above.
The method used in the present invention to measure in vitro reverse transcribing activities of HBV polymerase is as follows. Basic principles are the same as for ELISA. Nucleotides with biotin or digoxigenin group attached are included as substrates and anti-DIG antibodies attached to peroxidase enzyme recognize the polymerized substrates.
To the wells coated with streptavidin, 20 μl of HBV polymerase, 20 μl of reaction mixture (10 μM each of DIG-UTP and Biotin-UTP, 46 mM Tris-HCl, 266 mM KCl, 27.5 mM MgCl2, 9.2 mM DTT substrate/primer hybrid), and 20 μl of test compound (added to 1, 0.1, and 0.01 μg/ml) were added and allowed to react a 22° C. for 15 hrs. During this reaction, HBV polymerase catalyzes DNA synthesis and digoxigenin and biotin attached to nucleotides form bonds with streptavidin coated on the bottom of wells. When the reaction was done, each well was washed with 250μl of cleaning buffer (pH 7.0) for 30 seconds, which was repeated five times to remove remaining impurities. 200 μl of anti-DIG-POD antibody was added to each well and allowed to react for 1 hr at 37° C., and the wells were washed with cleaning buffer to remove impurities. 200μl each of ABTS™, a substrate of peroxidase, was then added and allowed to react at room temperature for 30 min. Absorbance was measured at 405 nm using ELISA reader.
The percentage of reduction in HBV polymerase activities for reverse transcription was calculated using the group without test compound as a control and the results are shown in Table 3.
(In general: ELISA stands for enzyme-linked immunosorbent assay.)

Series [1] in a line: Cytotoxicity test on HepG2 cells (MTT). In kind it is cell-based. As to conditions: human, read-out: Cytotoxity on HepG2, IC50 (50% Inhibitory Concentration).
A further series has as its system HepG2 cells. As to the kind of experiment: Cytotoxicity test on HepG2 cells (MTT). The format is cell-based.
The test system of the next series is HBV. As to the kind of experiment: Inhibition of HBV proliferation in HBV producing cell line HepG 2.2.15 (competitive PCR of culture supernatant). The format is cell-based, Hepatitis B virus. The following applies: Hepatitis B virus, HepG2.2.15, 168 h, HepG 2.2.15, one week, read-out: Inhibitory effect on the HBV proliferation, Inhibition activity on HBV-RT (%); for inhibition at 0.01 µg/mL: 0.01 μg/ml; for inhibition at 0.1 µg/mL: 0.1 μg/ml; for inhibition at 1 µg/mL: 1 μg/ml. As to the method: The following experiment was performed to determine inhibitory effects of compounds of formula on the proliferation of HBV producing cell line.
To test for antiviral effect, replication and proliferation of HBV were measured in HepG 2.2.15, a human liver cancer cell line.
The cell concentration was adjusted to 1×10^5 cells/ml and 1 ml was added to each well of a 24-well cell culture plate, which was then kept in a culture box for 3-4 days at 37° C. under 5% CO2 until cells grew sufficiently, changing culture medium everyday. When the cells matured sufficiently, the test compounds were added to the final concentrations of 0.01, 0.1, and 1 μg/ml. One week after the addition of test compounds, he culture solution was centrifuged at 5,000 rpm for 10 min. 25 μl of supernatant was transferred to a new tube and 5 μl of lysis solution [0.54N NaOH, 0.06% NP40] was added to each tube. After keeping the tube at 37° C. for 1 hr, 30 μl . of neutralizing solution [0.09NHCl, 0.1MTris-HCl, pH7.4] was added as a reaction solution for competitive polymerase chain reaction (PCR).
PCR was performed using genetic sequence of HBV core protein as a matrix. PCR reaction was carried out by adding 1 unit of Taq polymerase enzyme to 25 pmol of each primer, 250 μM dNTP, 5 μl of PCR reaction solution [0.54N NaOH, 0.06% NP40, 0.09N HCl, 0.1M Tris-HCl, pH 7.4].
DNA polymerized by PCR was electrophoresed on Agarose gel and quantitatively analyzed using an image analyzer (Gel Dcc 1000, Bio-Rad) in order to evaluate the effect of compounds of the present invention on the reduction of HBV proliferation.
3TC (lamivudine) was used as a positive control at the same concentrations as those of the test compounds. The percentage of reduction in HBV proliferation was calculated using the group without test compound as a control and the results are represented in Table 4.

In series [2] the target is T2, HIV reverse transcriptase (Human immunodeficiency virus type 1 group M subtype B, UniProt P04585).
T2 construct: activities of HIV reverse transcriptase; purchased Boehringer Mannheim
As to the kind of experiment: In vitro HIV reverse transcriptase activity (non-radioactive reverse transcriptase assay kit). The format is biochemical. As to conditions: for Inhibitory effect on the activities of HIV reverse transcriptase, Inhibition activity on HBV-RT (%): 0.1 μg/ml test compound; for Inhibition of HIV reverse transcriptase activity: 1 μg/ml test compound. The method, then:
The following in vitro experiments were done to determine the effect of compounds of formula 1 on the reduction of HIV enzyme activities in reverse transcription.
Non-radioactive reverse transcriptase assay kit (Boehringer Mannheim) was used in the measurement of in vitro transcriptase activities. 20 μl (40 ng) of HIV transcriptase and 20 μl of reaction mixture containing matrix-primer hybrid poly (A) oligo (dT) 15, DIG(digoxigenin)-dUTP, biotin-dUTP, and TTP were added to wells coated with streptavidin. Test compounds were also added at the final concentrations of 0.1 and 1 μg/ml and allowed to react at 37° C. for 1 hr. At this time, DNA is formed from RNA by the action of HIV transcriptase, forming bonds with streptavidin coated on the bottom of wells because of digoxigenin and biotin moieties attached to nucleotides.
When the reaction was completed, each well was washed with 250 μl. of cleaning buffer (pH 7.0) for 30 sec. five times to remove remaining impurities. 200 μl of anti-DIG-POD […] was added to each well, allowed to react at 37° C. for 1 hr and washed as above to remove impurities. 200 μl of ABTS™, a substrate for peroxidase, was added to each well and allowed to react at room temperature for 30min. Absorbance at 405 nm was then read for each solution using ELISA reader and used for quantitative determination of inhibitory effect on the HIV transcriptase activities. The percentage of reduction in the activities of HIV reverse transcriptase was calculated using the group without test compound as control and the results are represented in Table 5.

T1 sequence (P03159 whole entry): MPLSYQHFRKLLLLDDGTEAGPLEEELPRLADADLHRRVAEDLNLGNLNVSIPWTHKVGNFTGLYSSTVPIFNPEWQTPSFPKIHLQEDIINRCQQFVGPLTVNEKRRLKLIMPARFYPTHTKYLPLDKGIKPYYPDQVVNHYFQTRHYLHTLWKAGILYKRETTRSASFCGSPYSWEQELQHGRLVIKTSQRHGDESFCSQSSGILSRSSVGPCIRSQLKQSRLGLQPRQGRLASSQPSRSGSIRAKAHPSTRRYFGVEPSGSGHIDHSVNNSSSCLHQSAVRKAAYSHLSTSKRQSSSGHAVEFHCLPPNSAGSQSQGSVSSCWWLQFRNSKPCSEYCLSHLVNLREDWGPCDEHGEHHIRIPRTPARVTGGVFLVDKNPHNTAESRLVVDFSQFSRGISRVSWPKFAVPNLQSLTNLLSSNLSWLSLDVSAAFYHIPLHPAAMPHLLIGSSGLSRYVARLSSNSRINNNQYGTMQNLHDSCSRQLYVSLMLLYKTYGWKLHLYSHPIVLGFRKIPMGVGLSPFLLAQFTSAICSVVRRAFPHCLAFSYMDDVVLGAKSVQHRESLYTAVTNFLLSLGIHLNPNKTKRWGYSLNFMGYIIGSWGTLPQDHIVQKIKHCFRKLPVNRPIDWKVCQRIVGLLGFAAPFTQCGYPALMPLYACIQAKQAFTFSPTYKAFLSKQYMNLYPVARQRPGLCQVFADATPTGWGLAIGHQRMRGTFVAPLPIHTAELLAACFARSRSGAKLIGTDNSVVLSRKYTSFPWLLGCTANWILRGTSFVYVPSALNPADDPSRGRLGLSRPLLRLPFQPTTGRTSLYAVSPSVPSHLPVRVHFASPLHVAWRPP

In the case of `CSc1ncc(C(=O)NCCO)c(Nc2ccc3cn[nH]c3c2)n1` [Example 8, N-(2-hydroxyethyl)-4-(1H-6-indazolylamino)-2-methylthio-5-pyrimidine Carboxamide], at HBV polymerase, the inhibition at 0.01 µg/mL stood at 50%, the inhibition at 0.1 µg/mL stood at 68% and the inhibition at 1 µg/mL was 95%. Besides, in series [1], the IC50 is more than 100 µg/mL. Besides, the “Cytotoxity on HepG2, MCD (Minimal Cytotoxic Concentration)” value in the series with HepG2 cells is 100 µg/mL. In addition, in the series on HBV, the inhibition at 0.01 µg/mL was 40%, the inhibition at 0.1 µg/mL worked out at 72% and the inhibition at 1 µg/mL worked out at 88%.
On to `CSc1ncc(C(=O)N(C)C)c(Nc2ccc3[nH]ncc3c2)n1` [Example 15, N,N-dimethyl-4-(1H-5-indazolylamino)-2-methylthio-5-pyrimidinecarboxamide], for which the melting point – broadly, the temperature of the solid-liquid transition – was 101 to 105 °C. Also, at HBV polymerase, the inhibition at 0.01 µg/mL is 42%, the inhibition at 0.1 µg/mL stood at 61% and the inhibition at 1 µg/mL was found to be 77%. Also, in the series with HBV, the inhibition at 0.01 µg/mL was 25%, the inhibition at 0.1 µg/mL amounted to 52% and the inhibition at 1 µg/mL stood at 70%.
Consider `CSc1ncc(C(=O)N(C)C)c(Nc2ccc3cn[nH]c3c2)n1` [Example 16, N,N-dimethyl-4-(1H-6-indazolylamino)-2-methylthio-5-pyrimidinecarboxamide], for which the melting point was in the range of 164 to 166 °C. For the same compound, on HBV polymerase, the inhibition at 0.01 µg/mL turned out to be 10%, the inhibition at 0.1 µg/mL worked out at 30% and the inhibition at 1 µg/mL amounted to 54%. Further, in series [2], the “Inhibitory effect on the activities of HIV reverse transcriptase, Inhibition activity on HBV-RT (%)” value (shortened to “Inhibitory effect on the activities … (%)”) was determined as 53% and the “Inhibition of HIV reverse transcriptase activity” value is 81%.
With `CSc1ncc(C(=O)NCCN(C)C)c(Nc2ccc3cn[nH]c3c2)n1` [Example 18, N-[2-(dimethylamino)ethyl]-4-(1H-6-indazolylamino)-2-methylthio-5-pyrimidinecarboxamide], the melting point lay in the range of 162 to 167 °C. Also, at HBV polymerase, the inhibition at 0.01 µg/mL was found to be 54%, the inhibition at 0.1 µg/mL was 66% and the inhibition at 1 µg/mL was 92%. Also, in series [2], the “Inhibitory effect on the activities … (%)” value was determined as 51% and the “Inhibition of HIV reverse transcriptase activity” value was 77%. Also, in the series with HBV, the inhibition at 0.01 µg/mL was 43%, the inhibition at 0.1 µg/mL worked out at 57% and the inhibition at 1 µg/mL was determined as 88%.
In the case of `CSc1ncc(C(=O)NCCN2CCOCC2)c(Nc2ccc3[nH]ncc3c2)n1` [Example 19, 4-(1H-5-indazolylamino)-2-methylthio-N-[2-(4-morpholinyl)ethyl]-5-pyrimidinecarboxamide], the melting point lay within 113 to 117 °C. Also, at HBV polymerase, the inhibition at 0.01 µg/mL is 10%, the inhibition at 0.1 µg/mL was 39% and the inhibition at 1 µg/mL is 64%. Moreover, in series [2], the “Inhibitory effect on the activities … (%)” value is 48% and the “Inhibition of HIV reverse transcriptase activity” value was 75%.
In the case of `CSc1ncc(C(=O)NCc2cccnc2)c(Nc2ccc3[nH]ncc3c2)n1` [Example 25, 4-(1H-5-indazolylamino)-2-methylthio-N-(3-pyridyl)methyl-5-pyrimidinecarboxamide], the melting point fell in the range of 268 to 270 °C. At HBV polymerase, the inhibition at 0.01 µg/mL is 53%, the inhibition at 0.1 µg/mL was determined as 76% and the inhibition at 1 µg/mL amounted to 97%. Besides, in the series with HBV, the inhibition at 0.01 µg/mL worked out at 40%, the inhibition at 0.1 µg/mL was 65% and the inhibition at 1 µg/mL stood at 92%.
Consider `CSc1ncc(C(=O)NCc2cccnc2)c(Nc2ccc3cn[nH]c3c2)n1` [Example 26, 4-(1H-6-indazolylamino)-2-methylthio-N-(3-pyridyl)methyl-5-pyrimidinecarboxamide], for which the melting point lay within 253 to 256 °C. Further, at HBV polymerase, the inhibition at 0.01 µg/mL was found to be 55%, the inhibition at 0.1 µg/mL is 79% and the inhibition at 1 µg/mL is 98%. In the series on HBV, the inhibition at 0.01 µg/mL was found to be 47%, the inhibition at 0.1 µg/mL is 75% and the inhibition at 1 µg/mL was 97%.
Take `CSc1ncc(C(=O)NCCc2ccccn2)c(Nc2ccc3[nH]ncc3c2)n1` [Example 27, 4-(1H-5-indazolylamino)-2-methylthio-N-[2-(2-pyridyl)ethyl]-5-pyrimidinecarboxamide]: the melting point was 220 to 223 °C. At HBV polymerase, the inhibition at 0.01 µg/mL came to 48%, the inhibition at 0.1 µg/mL came out at 60% and the inhibition at 1 µg/mL came to 88%. In the series on HBV, the inhibition at 0.01 µg/mL turned out to be 38%, the inhibition at 0.1 µg/mL was found to be 55% and the inhibition at 1 µg/mL was determined as 84%.
For the compound `CSc1ncc(C(=O)NCCc2ccccn2)c(Nc2ccc3cn[nH]c3c2)n1` [Example 28, 4-(1H-6-indazolylamino)-2-methylthio-N-[2-(2-pyridyl)ethyl]-5-pyrimidinecarboxamide], the melting point was in the range of 230 to 231 °C. Further, on HBV polymerase, the inhibition at 0.01 µg/mL turned out to be 52%, the inhibition at 0.1 µg/mL stood at 70% and the inhibition at 1 µg/mL turned out to be 95%. For the same compound, in the series with HBV, the inhibition at 0.01 µg/mL stood at 44%, the inhibition at 0.1 µg/mL came out at 68% and the inhibition at 1 µg/mL was 93%.
Compound `CSc1ncc(C(=O)NCCCn2ccnc2)c(Nc2ccc3[nH]ncc3c2)n1` [Example 29, N-[3-(1H-1-imidazolyl)propyl]-4-(1H-5-indazolylamino)-2-methylthio-5-pyrimidinecarboxamide] showed a melting point of 121 to 125 °C. At HBV polymerase, the inhibition at 0.01 µg/mL was found to be 41%, the inhibition at 0.1 µg/mL amounted to 56% and the inhibition at 1 µg/mL was determined as 80%. Further, in series [2], the “Inhibitory effect on the activities … (%)” value turned out to be 44% and the “Inhibition of HIV reverse transcriptase activity” value was 72%.

The values above are taken from patent US6762189B1, “5-pyrimidinecarboxamide derivatives and the pharmaceutical compositions containing said derivatives” (Dong Wha Pharm. Ind. Co., Ltd., priority 1999, dated 2004).
